Earlier results in US20240156825A1, “USE OF SELECTIVE VEGFR2 AND FGFR1 INHIBITORS” (Fountain Therapeutics Inc., priority 2022, published 2024).
Like-named read-outs stand apart in the source and are kept apart here.

Assays:
VEGFR2 = VEGFR2 (Homo sapiens, UniProt P35968); details: reported IC50 to VEGFR2, read-out: VEGFR2 IC50_μM, cited from earlier work
any gene target = details: next lowest IC50 value to any gene target, read-out: Min IC50_μM, cited from earlier work
[1] = Table 3, selective inhibitors of VEGFR2

VEGFR2, sequence (P35968 20-1356, species assumed): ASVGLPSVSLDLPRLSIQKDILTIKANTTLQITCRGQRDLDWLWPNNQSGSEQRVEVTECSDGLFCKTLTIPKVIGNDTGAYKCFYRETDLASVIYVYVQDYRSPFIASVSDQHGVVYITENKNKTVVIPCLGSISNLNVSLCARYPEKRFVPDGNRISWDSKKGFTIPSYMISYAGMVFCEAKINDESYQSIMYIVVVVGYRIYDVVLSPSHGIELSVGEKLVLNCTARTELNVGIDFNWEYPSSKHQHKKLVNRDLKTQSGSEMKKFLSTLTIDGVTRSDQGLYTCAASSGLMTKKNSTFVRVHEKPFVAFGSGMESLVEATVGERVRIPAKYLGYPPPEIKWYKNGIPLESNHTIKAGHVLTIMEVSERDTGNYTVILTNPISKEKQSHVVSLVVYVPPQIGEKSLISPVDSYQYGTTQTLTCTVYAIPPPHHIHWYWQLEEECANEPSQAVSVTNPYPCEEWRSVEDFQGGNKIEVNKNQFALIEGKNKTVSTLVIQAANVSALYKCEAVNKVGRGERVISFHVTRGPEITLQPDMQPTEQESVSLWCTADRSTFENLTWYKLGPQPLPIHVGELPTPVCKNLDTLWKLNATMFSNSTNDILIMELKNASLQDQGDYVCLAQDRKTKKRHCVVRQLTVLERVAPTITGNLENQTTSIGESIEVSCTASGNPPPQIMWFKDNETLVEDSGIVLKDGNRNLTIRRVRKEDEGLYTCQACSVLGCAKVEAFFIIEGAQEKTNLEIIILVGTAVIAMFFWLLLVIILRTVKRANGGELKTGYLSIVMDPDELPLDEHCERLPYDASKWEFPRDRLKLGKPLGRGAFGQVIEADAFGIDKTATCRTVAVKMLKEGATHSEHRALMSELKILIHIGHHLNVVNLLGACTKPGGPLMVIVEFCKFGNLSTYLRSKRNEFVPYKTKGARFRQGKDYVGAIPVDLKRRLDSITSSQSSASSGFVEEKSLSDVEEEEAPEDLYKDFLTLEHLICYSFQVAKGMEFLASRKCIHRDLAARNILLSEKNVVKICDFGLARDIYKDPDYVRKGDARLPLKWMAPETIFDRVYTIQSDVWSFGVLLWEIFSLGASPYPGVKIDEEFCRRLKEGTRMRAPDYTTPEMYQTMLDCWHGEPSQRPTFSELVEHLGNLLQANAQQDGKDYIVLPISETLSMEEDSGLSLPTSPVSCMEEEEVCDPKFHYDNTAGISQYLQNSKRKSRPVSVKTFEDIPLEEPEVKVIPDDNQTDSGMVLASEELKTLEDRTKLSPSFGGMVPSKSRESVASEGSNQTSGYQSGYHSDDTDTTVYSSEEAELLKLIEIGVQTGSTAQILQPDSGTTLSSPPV

SMILES | IC50 (VEGFR2) [nM] | IC50 (any gene target) [nM] | IC50 (VEGFR2; [1]) [nM] | IC50 (any gene target; Table 3) [nM]
c1cnc(NCc2ccncc2)c(-c2nnc(Nc3ccc4c(c3)OCCO4)o2)c1 [compound 44408215] | 170 | 29900 | – | –
CNC(=O)Nc1ccc(CNc2ncsc2C(=O)Nc2ccc3c(c2)OC(F)(F)O3)cn1 [compound 44442418] | 3 | 5 | – | –
CO/N=C(\C)c1ccc2c(c1)c1c3c(c4c(c1n2CC(C)C)CCc1nn(C)cc1-4)C(=O)NC3 [compound 44447890] | 4 | 8 | – | –
c1ccc2sc(-c3ccc(Nc4ncnc5[nH]ccc45)cc3)nc2c1 [compound 44564789] | 1200 | 1300 | – | –
CC1(C)CC(NC(=O)c2cccc(-c3cc4nccc(Nc5cccc(O)c5)n4n3)c2)CC(C)(C)N1[O] [compound 46179972] | 3.3 | 5 | – | –
O=C(Nc1ccccc1)Nc1ccc2c(c1)NC(=O)/C2=C\c1ccc[nH]1 [compound 46182735] | 1 | 2.3 | – | –
COc1cc2c(Nc3ccc(-c4nc5ccccc5s4)cc3)ncnc2cc1OCCCN1CCN(C)CC1 [compound 46225612] | 12 | 14 | – | –
COc1cc(C2=C(c3c[nH]c4ccc(I)cc34)C(=O)NC2=O)cc(OC)c1OC [compound 46231220] | 24.9 | 29.5 | – | –
Cc1ccc(C(=O)Nc2cccc(C(F)(F)F)c2)cc1Nc1nc2ccccc2n1-c1cc(NCCC#N)ncn1 [compound 46879446] | 245 | 275 | – | –
CCNC(=O)Nc1ccc(Oc2ncccc2-c2ccnc(NC)n2)c2ccccc12 [compound 46890315] | 48 | 130 | – | –
COc1ccc(NC(=O)Nc2ccc3c(c2)NC(=O)/C3=C\c2[nH]cc(C(=O)O)c2C)cc1 [compound 46898039] | – | – | 0.5 | 0.5
COc1cc2c(Nc3cc(O)c(C)cc3F)ncnc2cc1OCC1CCN(C)CC1 [compound 49860186] | 7 | 25 | – | –
COc1cc2c(Nc3ccc(Br)cc3F)ncnc2cc1OCCCN1CCN(C)CC1 [compound 49860190] | 9 | 30 | – | –
CCN(Cc1cc(Nc2nc(C)cn3c(-c4cn[nH]c4)cnc23)sn1)C(C)(C)CO [compound 53317913] | – | – | 1 | 1
COc1cc(O)c2c(c1)CCC[C@H](O)CC(=O)/C=C\C[C@H](C)OC2=O [compound 53324451] | 5.8 | 7.23 | – | –
COc1cc2c(Nc3cc(Cl)c(Cl)cc3F)ncnc2cc1OC[C@@H]1CN2CCC[C@H]2CO1 [compound 53630919] | – | – | 50 | 50
COc1cc2c(Nc3ccc(Cl)c(Cl)c3F)ncnc2cc1OC[C@@H]1CN2CCC[C@H]2C(=O)N1C [compound 53630920] | – | – | 50 | 50
COc1cc2c(Nc3ccc(Cl)c(Cl)c3F)ncnc2cc1OC[C@@H]1CN2CCC[C@H]2C(=O)N1 [compound 53630923] | – | – | 50 | 50
COc1cc2c(Nc3ccc(Cl)c(Cl)c3F)ncnc2cc1OC[C@@H]1CN2CCC[C@@H]2C(=O)N1 [compound 53630924] | – | – | 50 | 50
COc1cc2c(Nc3ccc(Cl)c(Cl)c3)ncnc2cc1OCc1nc2c(s1)CNCC2 [compound 53630967] | – | – | 50 | 50
COc1cc2c(Nc3ccc(Cl)c(Cl)c3)ncnc2cc1OCc1csc(C2CCNCC2)n1 [compound 53630972] | – | – | 50 | 50
CN1CCC(COc2ccc3c(Nc4ccc(NC(=O)Nc5cccc(F)c5)cc4)ncnc3c2)CC1 [compound 56835147] | 5.5 | 9.6 | – | –
Nc1c(-c2ccc(F)cc2)c(-c2ccncc2)nn1-c1c(Cl)cc(Cl)cc1Cl [compound 56924694] | 29 | 31 | – | –
COc1ccc(-c2cnc3cncc(Nc4ccc(N5CCCCC5)cc4)c3n2)cc1 [compound 57332844] | 2050 | 2270 | – | –
COc1cc2c(Nc3cc(Cl)c(Cl)cc3F)ncnc2cc1OCC1CN(C)CCO1 (stereo not drawn) [compound 57802547] | – | – | 50 | 50
COc1cc2c(Nc3ccc(C)c(Br)c3)ncnc2cc1OCC1CN(C)CCO1 (stereo not drawn) [compound 57802550] | – | – | 50 | 50
COc1cc2c(Nc3ccc(Cl)c(Cl)c3)ncnc2cc1OCC1CN(S(C)(=O)=O)CCCO1 (stereo not drawn) [compound 57802556] | – | – | 50 | 50
COc1cc2c(Nc3ccc(Br)c(F)c3F)ncnc2cc1OCC1CN(C)CCO1 (stereo not drawn) [compound 57802560] | – | – | 50 | 50
CCN=C(NC#N)N1CCOC(COc2cc3ncnc(Nc4ccc(Cl)c(Cl)c4)c3cc2OC)C1 (stereo not drawn) [compound 57802565] | – | – | 50 | 50
COc1cc2c(Nc3ccc(Br)c(Cl)c3F)ncnc2cc1OCC1CN(C)CCO1 (stereo not drawn) [compound 57802566] | – | – | 50 | 50
